Experimental data reported in the NIST ThermoML archive (doi:10.1016/j.fluid.2014.01.041).
Numbers after ± are expanded uncertainties.

conditions: Crystal; DTA

Row | Compound | Normal melting temperature [°C]
1 | NC(=O)CN1CCCC1=O [2-oxo-1-pyrrolidineacetamide] | 125 ± 0.4
2 | C(=C\c1ccccc1)/CN1CCN(C(c2ccccc2)c2ccccc2)CC1 [cinnarizine] | 122.0 ± 0.4
3 | CC(=O)CCCCn1c(=O)c2c(ncn2C)n(C)c1=O [3,7-dimethyl-1-(5-oxohexyl)-3,7-dihydro-1H-purine-2,6-dione] | 106 ± 0.4
